The source made the active and inactive calls. The rule behind the calls is not given here.
How the values were obtained:
[1] = tested on: MCF7; assay: Antiproliferative activity against human MCF7 cells incubated for 5 days by MTT assay; type: functional, cell-based; conditions: MCF7, 120 h
[2] = molecular target: T1, Estrogen receptor (Homo sapiens) (UniProt P03372); assay: Induction of estrogen receptor degradation in estradiol-stimulated human MCF7 cells assessed as decrease in PGR mRNA level incubated for 24 hrs by RT-qPCR analysis; type: cell-based; conditions: dose 1-10 µM
T1 sequence (whole entry): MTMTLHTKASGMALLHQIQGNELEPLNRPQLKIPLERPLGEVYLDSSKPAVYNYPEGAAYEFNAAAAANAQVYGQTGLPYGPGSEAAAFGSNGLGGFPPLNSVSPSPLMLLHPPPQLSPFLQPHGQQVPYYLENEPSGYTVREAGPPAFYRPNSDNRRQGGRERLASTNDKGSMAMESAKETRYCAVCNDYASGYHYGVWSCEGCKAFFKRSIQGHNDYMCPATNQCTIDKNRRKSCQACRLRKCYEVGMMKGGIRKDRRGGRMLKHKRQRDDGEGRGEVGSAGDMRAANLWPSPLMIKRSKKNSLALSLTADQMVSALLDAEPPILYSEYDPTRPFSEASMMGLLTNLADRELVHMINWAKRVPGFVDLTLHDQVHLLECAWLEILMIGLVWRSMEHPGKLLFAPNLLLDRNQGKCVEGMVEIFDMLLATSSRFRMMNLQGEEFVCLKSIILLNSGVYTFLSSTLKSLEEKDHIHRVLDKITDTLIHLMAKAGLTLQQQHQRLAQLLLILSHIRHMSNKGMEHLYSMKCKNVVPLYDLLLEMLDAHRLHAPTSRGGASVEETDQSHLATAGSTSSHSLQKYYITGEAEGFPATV

[3] = molecular target: T1, Estrogen receptor (Homo sapiens); assay: Induction of estrogen receptor degradation in estradiol-stimulated human MCF7 cells assessed as decrease in GREB1 mRNA level incubated for 24 hrs by RT-qPCR analysis; type: cell-based; conditions: dose 1-10 µM
[4] = Tmax in rat at 5 mg/kg, iv measured for 1 to 24 hrs by LC-MS analysis; type: ADME, organism-based; conditions: in vivo, time 1-24 hrs
[5] = Cmax in rat at 5 mg/kg, iv measured for 1 to 24 hrs by LC-MS analysis; type: ADME, organism-based; conditions: in vivo, time 1-24 hrs
[6] = C0 in rat at 5 mg/kg, iv measured for 1 to 24 hrs by LC-MS analysis; type: ADME, organism-based; conditions: in vivo, time 1-24 hrs
[7] = Clearance in rat at 5 mg/kg, iv measured for 1 to 24 hrs by LC-MS analysis; type: ADME, organism-based; conditions: in vivo, time 1-24 hrs
[8] = Half life in rat at 20 mg/kg, po measured for 1 to 24 hrs by LC-MS analysis; type: ADME, organism-based; conditions: in vivo, time 1-24 hrs
[9] = Cmax in rat at 20 mg/kg, po measured for 1 to 24 hrs by LC-MS analysis; type: ADME, organism-based; conditions: in vivo, time 1-24 hrs
[10] = AUC (0 to infinity) in rat at 20 mg/kg, po measured for 1 to 24 hrs by LC-MS analysis; type: ADME, organism-based; conditions: in vivo, time 1-24 hrs
[11] = MRT (0 to t) in rat at 20 mg/kg, po measured for 1 to 24 hrs by LC-MS analysis; type: ADME, organism-based; conditions: in vivo, time 1-24 hrs
[12] = tested on: MCF7; assay: Synergistic antiproliferative activity against human MCF7 cells at 0.1 to 10000 nM incubated for 5 days in presence of Ribociclib by MTT assay; type: functional, cell-based; conditions: dose 0.1-10000 nM, time 5.0 day
[13] = tested on: MCF7; assay: Induction of ROS production in human MCF7 cells measured after 6 to 24 hrs by flow cytometry; type: functional, cell-based; conditions: time 6-24 hrs
[14] = tested on: MCF7; assay: Induction of endoplasmic reticulum stress effect in human MCF7 cells assessed as change in EIF-2alpha level at 10 uM incubated for 3 to 24 hrs by Western blot analysis; type: functional, cell-based; conditions: time 3-24 hrs
[15] = tested on: MCF7; assay: Induction of endoplasmic reticulum stress effect in human MCF7 cells assessed as change in CHOP level at 10 uM incubated for 3 to 24 hrs by Western blot analysis; type: functional, cell-based; conditions: time 3-24 hrs
[16] = tested on: MCF7; assay: Induction of immunogenic cell death in human MCF7 cells assessed as CRT translocation at 10 uM by FITC staining based flow cytometry; type: functional
[17] = tested on: MCF7; assay: Induction of immunogenic cell death in human MCF7 cells assessed as CRT translocation at 10 uM by fluorescence microscopy; type: functional, cell-based
[18] = tested on: MCF7; assay: Induction of immunogenic cell death in human MCF7 cells assessed as HMGB1 release from nucleus at 10 uM by Western blot analysis; type: functional, cell-based
[19] = tested on: MCF7; assay: Induction of immunogenic cell death in human MCF7 cells assessed as HMGB1 release from nucleus at 10 uM by FITC staining based flow cytometry; type: functional
[20] = tested on: MCF7; assay: Induction of immunogenic cell death in human MCF7 cells assessed as HMGB1 release from nucleus at 10 uM by fluorescence microscopy; type: functional, cell-based
[21] = tested on: MCF7; assay: Antitumor activity against human MCF7 cells xenografted in nude mouse model assessed as tumor growth inhibition at 60 mg/kg, po administered daily via gavage for 30 days; type: functional, organism-based; conditions: time 30.0 day
[22] = Toxicity in nude mouse model xenografted with human MCF7 cells assessed as body weight loss at 60 mg/kg, po administered daily via gavage for 30 days; type: organism-based; conditions: in vivo, 720 h, time 30 day
[23] = Toxicity in nude mouse model xenografted with human MCF7 cells assessed as morphological change in spleen at 60 mg/kg, po administered daily via gavage for 30 days by H and E staining based analysis; type: organism-based; conditions: in vivo, 720 h, time 30 day
[24] = Toxicity in nude mouse model xenografted with human MCF7 cells assessed as morphological change in kidney at 60 mg/kg, po administered daily via gavage for 30 days by H and E staining based analysis; type: organism-based; conditions: in vivo, 720 h, time 30 day
[25] = tested on: MCF7; assay: Antitumor activity against human MCF7 cells xenografted in nude mouse model assessed as reduction in Ki67 level at 60 mg/kg, po administered daily via gavage for 30 days in presence of ribociclib by IHC analysis; type: functional, organism-based; conditions: time 30.0 day

IC50 [1]: 150 nM
Activity [2]: Dose-Dependent Effect
Activity [3]: Dose-Dependent Effect
Tmax [4]: 4.98 min
Cmax [5]: 10400 ng/mL
C0 [6]: 31300 ng/mL
clearance [7]: 27.8 mL/min/kg
half-life [8]: 3.18 h
Cmax [9]: 501 ng/mL
AUC(0-inf) [10]: 649 ng·h/mL
MRT last [11]: 2.19 h
SMILES: CCc1ccccc1C(=O)c1cnc2cc(O)ccc2c1Oc1ccc(/C=C/C(=O)O)cc1
Activity [12]: Active
Activity [13]: inactive
Activity [14]: Active
Activity [15]: Active
Activity [16]: Active
Activity [17]: Active
Activity [18]: Active
Activity [19]: Active
Activity [20]: Active
inhibition [21]: Active
Activity [22]: Non-Toxic
Activity [23]: Non-Toxic
Activity [24]: Non-Toxic
Activity [25]: Active

Reference: ChEMBL document CHEMBL5584239, “Discovery of novel quinoline scaffold selective estrogen receptor degraders (SERDs) for treatment of ER positive breast cancer with enhanced antiproliferative bioactivity through immunogenic cell death (ICD) effects” (Eur J Med Chem, 2024)
